Reference: patent US8507464B2, “Phosphoramidate alkylator prodrugs” (Threshold Pharmaceuticals, Inc., priority 2005, dated 2013)
Converted amounts (≈) assume the structure as drawn. Read-outs that look alike come from different tables or passages of the source.

Assays:
NCI H460 xenograft = assay: H460 xenograft mouse model with CDDP (Example 51); type: in vivo; conditions: 50 mg/kg daily or 100 mg/kg every three days, saline formulation
Protocol: Female CB17/SCID mice (purchased from Charles River, Cambridge, Mass.), 7-8 weeks of age, were allowed to acclimatize for at least three days, and handled under pathogen-free conditions. Human non-small cell lung carcinoma cell line NCI H460 was obtained from the American Type Culture Collection. The cell lines were cultured and harvested as described in Example 47 above, and inoculated at 3×10^6 cells/animal in the peritoneal subcutaneous space. When the tumors grew to an average volume of 100 mm^3, treatment was initiated in which groups of 10 mice received vehicle (Group 1), CDDP at 3 or 6 mg/kg (Groups 2 and 3, respectively, IV one time), Compound 25 at 50 mg/kg in saline 5 times per week for two weeks (Group 4), Compound 25 at 100 mg/kg every three days for 5 times (Group 5) or the combination of each dose of Compound 25 with either 3 or 6 mg/kg of CDDP (Groups 6 and 7, respectively). Results for groups receiving 50 mg/kg of Compound 25 are illustrated in the FIG. 1.

HT29 spheroids = assay: Spheroid model, clonogenic survival; type: cell-based; conditions: Homo sapiens, HT-29, read-out: IC90 HT29 Spheroid 10% O2
[1] = biological target: CYP2C19 (printed CYPC219) (Homo sapiens, UniProt P33261); assay: Cytochrome P450 inhibition; conditions: pH 7.4, probe (S)-mephenyloin
CYP2C19 (printed CYPC219), sequence (P33261 whole entry): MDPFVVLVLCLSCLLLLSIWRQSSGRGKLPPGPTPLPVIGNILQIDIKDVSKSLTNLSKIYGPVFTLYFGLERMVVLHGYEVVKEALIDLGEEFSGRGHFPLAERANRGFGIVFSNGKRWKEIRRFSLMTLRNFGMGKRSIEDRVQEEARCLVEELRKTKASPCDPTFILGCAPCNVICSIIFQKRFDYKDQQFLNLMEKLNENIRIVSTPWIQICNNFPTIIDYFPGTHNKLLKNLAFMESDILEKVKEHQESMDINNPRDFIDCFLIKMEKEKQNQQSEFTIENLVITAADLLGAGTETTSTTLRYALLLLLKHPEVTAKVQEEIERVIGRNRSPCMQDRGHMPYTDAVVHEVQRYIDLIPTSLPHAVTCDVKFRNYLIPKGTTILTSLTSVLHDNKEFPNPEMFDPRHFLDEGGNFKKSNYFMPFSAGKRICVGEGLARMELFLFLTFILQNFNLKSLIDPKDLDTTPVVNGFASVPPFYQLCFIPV
Protocol: (§1) A control reaction with no inhibitor was also prepared. After a suitable incubation at 37° C., the reactions were terminated by the addition of […] of 10% formic acid in water ([…] of acetonitrile for 2C19). […] Each assay was performed in duplicate.

CYP2C9 = CYP2C9 (Homo sapiens, UniProt P11712); assay: Cytochrome P450 inhibition; conditions: pH 7.4
CYP2C9, sequence (P11712 whole entry): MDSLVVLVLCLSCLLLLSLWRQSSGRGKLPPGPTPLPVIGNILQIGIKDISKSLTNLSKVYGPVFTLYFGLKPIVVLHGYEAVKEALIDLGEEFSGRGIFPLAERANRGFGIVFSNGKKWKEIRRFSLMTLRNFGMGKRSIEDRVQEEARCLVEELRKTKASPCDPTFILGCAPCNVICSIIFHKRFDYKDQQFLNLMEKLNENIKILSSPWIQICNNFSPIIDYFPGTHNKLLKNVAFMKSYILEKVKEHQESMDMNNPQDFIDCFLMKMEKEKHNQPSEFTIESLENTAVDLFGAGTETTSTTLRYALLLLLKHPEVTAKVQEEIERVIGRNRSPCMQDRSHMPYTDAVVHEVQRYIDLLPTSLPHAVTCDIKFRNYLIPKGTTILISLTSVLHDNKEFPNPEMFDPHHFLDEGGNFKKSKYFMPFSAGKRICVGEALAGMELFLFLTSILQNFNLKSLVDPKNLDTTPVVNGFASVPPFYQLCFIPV
Protocol: as §1

[2] = tested on: human (HLM) liver microsomal proteins; assay: Metabolic stability in liver microsomal protein; type: in vitro ADME; conditions: Table 2A, second study, 5 μM
H460 cells = assay: Cell cycle distribution (flow cytometry); type: cell-based, human
H460 xenograft = H460 xenograft in nude mice, ip bolus or ip infusion with Cisplatin (Example 54); type: in vivo, mouse; conditions: alone or in combination with CDDP
Protocol: Example 54 describes efficacy of Compound 25 via an ip bolus injection or ip infusion alone or in combination with Cisplatin in the H460 xenograft mouse model. Female Nu-Foxn1^nu homozygous nu/nu mice (purchased from Charles River, Cambridge, Mass.), 6 weeks of age, were allowed to acclimatize for at least three days, and handled under pathogen-free conditions. Human H460 cells were obtained from the American Type Culture Collection. The cell lines were cultured and harvested as described in Example 47 and inoculated at 3×10^6 cells/animal in the peritoneal subcutaneous space. When the tumors grew to an average volume of 100 mm^3 (day 8), each group of mice (ten per group) was administered, for three weeks, as tabulated in the table below: Compound 25 (formulated as a 15 mg/ml saline solution, administration route—i.p., administrated 2 h before CDDP on the days the combination therapy is scheduled) and CDDP in saline, IV.
The body weight and tumor volume was determined as described in Example 47.

HT29 xenograft = assay: HT-29 xenograft mouse model with CDDP (Example 52); type: in vivo; conditions: for % Inhibition vs Group 1 / % Inhibition vs Group 2: tumor volumes at day 25; for % Inhibition vs Group 1: vs vehicle group, regimen per table
Protocol: Female CB17/SCID mice (purchased from Charles River, Cambridge, Mass.), 7-8 weeks of age, were allowed to acclimatize for at least three days, and handled under pathogen-free conditions. Human colon carcinoma cell line HT29 was obtained from the American Type Culture Collection. The cell lines were cultured and harvested as described in Example 47 and inoculated at 3×10^6 cells/animal in the peritoneal subcutaneous space. When the tumors grew to an average volume of 100 mm^3 (day 8), each group of mice (ten per group) was administered, for three weeks, as tabulated in the table below: Compound 25 in saline, administration route—i.p., administrated 2 h before CDDP on the days the combination therapy is scheduled and CDDP (in saline, IV).
The body weight and tumor volume were determined as described in Example 47. Data are based on tumor volumes at day 25 when tumors in the vehicle group had reached sufficient size to require that the mice be sacrificed.

[3] = Solubility in saline at room temperature; type: physicochemical; conditions: saline or isotonic
PC3 cells = assay: Antiproliferation assay (Alamar Blue), anoxia vs air; conditions: Homo sapiens, PC-3, 2 h
[4] = Group 7, Compound 25 i.p. in combination with CDDP IV
[5] = Group 8, Compound 25 i.p. in combination with CDDP IV
[6] = Group 9, Compound 25 i.p. in combination with CDDP IV
[7] = Group 10, Compound 25 i.p. in combination with CDDP IV

Cn1c(COP(=O)(NCCBr)NCCBr)cnc1[N+](=O)[O-] [Compound 25]
tumor volume and tumor growth delay (NCI H460 xenograft): significant dose related decrease in tumor volume and increase in tumor growth delay
IC90 (HT29 spheroids): 29 µM
IC50 [1]: > 50 µM
IC50 (CYP2C9): ~10 µM
Metabolic stability (% at 30 min) HLM [2]: 127%
Cell cycle G0/G1 (H460 cells; 0.005 μM, Air): 38
Cell cycle G2/M (H460 cells; 0.005 μM, Air): 42
Cell cycle S (H460 cells; 0.005 μM, Air): 18
Cell cycle G0/G1 (H460 cells; 0.005 μM, Nitrogen): 50
Cell cycle G2/M (H460 cells; 0.005 μM, Nitrogen): 38
Cell cycle S (H460 cells; 0.005 μM, Nitrogen): 12
Cell cycle G0/G1 (H460 cells; 0.05 μM, Air): 58
Cell cycle G2/M (H460 cells; 0.05 μM, Air): 28
Cell cycle S (H460 cells; 0.05 μM, Air): 11
Cell cycle G0/G1 (H460 cells; 0.05 μM, Nitrogen): 30
Cell cycle G2/M (H460 cells; 0.05 μM, Nitrogen): 59
Cell cycle S (H460 cells; 0.05 μM, Nitrogen): 7
Cell cycle G0/G1 (H460 cells; 0.5 μM, Air): 58
Cell cycle G2/M (H460 cells; 0.5 μM, Air): 28
Cell cycle S (H460 cells; 0.5 μM, Air): 11
Cell cycle G0/G1 (H460 cells; 0.5 μM, Nitrogen): 23
Cell cycle G2/M (H460 cells; 0.5 μM, Nitrogen): 40
Cell cycle S (H460 cells; 0.5 μM, Nitrogen): 31
Cell cycle G0/G1 (H460 cells; 5 μM, Air): 42
Cell cycle G2/M (H460 cells; 5 μM, Air): 59
Cell cycle S (H460 cells; 5 μM, Air): 6
Cell cycle G0/G1 (H460 cells; 5 μM, Nitrogen): 47
Cell cycle G2/M (H460 cells; 5 μM, Nitrogen): 17
Cell cycle S (H460 cells; 5 μM, Nitrogen): 15
Cell cycle G0/G1 (H460 cells; 50 μM, Air): 14
Cell cycle G2/M (H460 cells; 50 μM, Air): 65
Cell cycle S (H460 cells; 50 μM, Air): 19
Cell cycle G0/G1 (H460 cells; 50 μM, Nitrogen): 33
Cell cycle G2/M (H460 cells; 50 μM, Nitrogen): 11
Cell cycle S (H460 cells; 50 μM, Nitrogen): 14
efficacy of continuous application (H460 xenograft): efficacious
% Inhibition vs Group 1 (HT29 xenograft; Group 3, Compound 25 in saline i.p.): 28.2%
% Inhibition vs Group 1 (HT29 xenograft; Group 4, Compound 25 in saline i.p.): 30.1%
% Inhibition vs Group 1 (HT29 xenograft; Group 5, Compound 25 in saline i.p.): 31.3%
% Inhibition vs Group 1 (HT29 xenograft; Group 6, Compound 25 in saline i.p.): 48.1%
% Inhibition vs Group 2 (HT29 xenograft; [4]): 30.8%
% Inhibition vs Group 1 (HT29 xenograft; [4]): 50.7%
% Inhibition vs Group 2 (HT29 xenograft; [5]): 27.5%
% Inhibition vs Group 1 (HT29 xenograft; [5]): 44.2%
% Inhibition vs Group 2 (HT29 xenograft; [6]): 21.5%
% Inhibition vs Group 1 (HT29 xenograft; [6]): 36.2%
% Inhibition vs Group 2 (HT29 xenograft; [7]): 33.2%
% Inhibition vs Group 1 (HT29 xenograft; [7]): 51.8%
tumor growth (HT29 xenograft; monotherapy 50 and 100 mg/kg/day, various regimens, saline): inhibition of tumor growth
body weight (HT29 xenograft; more so in combination groups, recovered): modest body weight loss
solubility [3]: 15 mg/mL (≈ 33.4 mM)
IC50 (PC3 cells; read-out: IC50 PC3 Air): > 100 µM
IC50 (PC3 cells; read-out: IC50 PC3 Anoxia): 0.6 µM
